# Data published in ChEMBL document CHEMBL1131184, “Novel CDC25A phosphatase inhibitors from pyrolysis of 3-alpha-azido-B-homo-6-oxa-4-cholesten-7-one on silica gel” (J Med Chem, 1998).
# Target: T1, M-phase inducer phosphatase 1 (Homo sapiens, UniProt P30304)
# T1 sequence (P30304 whole entry): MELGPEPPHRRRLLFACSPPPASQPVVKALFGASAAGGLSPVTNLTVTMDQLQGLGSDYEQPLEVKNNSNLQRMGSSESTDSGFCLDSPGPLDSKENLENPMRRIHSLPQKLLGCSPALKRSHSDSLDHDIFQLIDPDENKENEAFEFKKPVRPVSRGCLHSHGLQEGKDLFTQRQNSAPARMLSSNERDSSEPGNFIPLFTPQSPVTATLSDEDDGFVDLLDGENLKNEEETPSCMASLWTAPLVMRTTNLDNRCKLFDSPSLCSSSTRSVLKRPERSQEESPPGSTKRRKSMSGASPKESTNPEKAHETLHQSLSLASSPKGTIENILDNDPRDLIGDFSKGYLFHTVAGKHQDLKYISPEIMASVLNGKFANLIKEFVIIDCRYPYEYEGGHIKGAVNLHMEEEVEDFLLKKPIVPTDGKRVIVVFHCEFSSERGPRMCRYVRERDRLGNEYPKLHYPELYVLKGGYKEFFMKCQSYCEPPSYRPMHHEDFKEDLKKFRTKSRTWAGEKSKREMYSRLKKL
# Assay: Compound was evaluated for the inhibition of Cdc25A phosphatase by using fluorescein diphosphate as substrate
row,SMILES,IC50 [µM]
1,C=C(CC/C=C\C#N)[C@H]1CC[C@]2(C)[C@@H](C(C)CCCC(C)C)CC[C@H]2[C@@H]1CC(=O)O (stereo not given in full),9.7
2,C/C(=C\C/C=C\C#N)[C@H]1CC[C@]2(C)[C@@H](C(C)CCCC(C)C)CC[C@H]2[C@@H]1CC(=O)O (stereo not given in full),24.2
3,CC(C)CCCC(C)[C@H]1CC[C@H]2[C@@H]3CC(=O)O[C@](C)(CC/C=C\C#N)[C@H]3CC[C@]12C (stereo not given in full),> 50
4,CC(C)CCCC(C)[C@H]1CC[C@H]2[C@@H]3CC(=O)O[C@@](C)(CC/C=C\C#N)[C@H]3CC[C@]12C (stereo not given in full),13.3
5,C=C(CCCCC#N)[C@H]1CC[C@]2(C)[C@@H]([C@H](C)CCCC(C)C)CC[C@H]2[C@@H]1CC(=O)O,2.2
